Broadly, the IC50 is the concentration at which inhibition is half-maximal. A higher IC50 goes with lower potency.

Where a name gives a salt, the structure may show the parent alone.

Results on 18 compounds are retold here after patent US20100105664A1, “ORGANIC COMPOUNDS” (priority 2006, published 2010).

The experiment concerns the target T1, human MK2 (Homo sapiens, UniProt P49137).
T1 construct: made in house
Description: MAPKAPK2 (or MK2) Kinase Assay. Conditions: activated MAPKAPK2, Hsp27 peptide substrate, 5 μM ATP, TR-FRET. It counts as biochemical. The procedure:
MAPKAPK2 (or MK2) Kinase Assay
MAPAPK2 is pre-activated in kinase buffer (25 mM TRIS-HCL, pH 7.5, 25 mM beta-glycerophosphate, 0.1 mM sodium orthovanadate, 25 mM MgCl2, 20 μM DTT) containing 5 μM ATP, 150 μg/ml human MK2 (HPLC purified in house), 30 μg/ml active human p38α (HPLC purified in house) for 30 min at 22° C. For the measurement of compound inhibition on activated MAPAPK2, each reaction contained test compound (10 μl; 0.5% DMSO final) or vehicle control, 250 nM Hsp27 peptide biotinyl-AYSRALSRQLSSGVSEIR—COOH as substrate (10 μl) and pre-activated MAPKAP2 kinase mix (10 μl) containing ATP (5 μM final). To define non-specific, reactions are performed in the absence of substrate. Following incubation at 22° C. for 45 min, kinase reactions are terminated with 125 μM EDTA (10 μl). Samples (10 μl) are transferred to black low volume 384-well plates (Greiner) prior to the detection of phosphorylated substrate by time-resolved fluorescence resonance energy transfer (TR-FRET). Phosphorylated Hsp27 is measured using an antibody mix (10 μl) containing a rabbit anti-phospho-Hsp27 (Ser^82) antibody (2.5 nM, Upstate) in conjunction with an anti-rabbit europium-labeled secondary antibody LANCE Eu-W1024 (2.5 nM; Perkin Elmer) as fluorescence donor along with streptavidin SureLight-APC (6.25 nM; Perkin Elmer) as a fluorescence acceptor. Following incubation at 22° C. for 90 min, plates are measured at 615 and 665 nm using a PHERAstar (BMG Labtech). The 615/665 nm ratio is determined following subtraction of background. Values are expressed as % inhibition using control values. Individual IC50 values of compounds are determined by nonlinear regression after fitting of curves to the experimental data using Excel XL fit 4.0 (Microsoft).
For a number of compounds being identified by their example No. the efficacy is disclosed as being assessable by the above described MK2 kinase assay: […]
For orientation: TR-FRET usually uses a lanthanide donor and a delayed reading to cut background.

T1 sequence (P49137 whole entry): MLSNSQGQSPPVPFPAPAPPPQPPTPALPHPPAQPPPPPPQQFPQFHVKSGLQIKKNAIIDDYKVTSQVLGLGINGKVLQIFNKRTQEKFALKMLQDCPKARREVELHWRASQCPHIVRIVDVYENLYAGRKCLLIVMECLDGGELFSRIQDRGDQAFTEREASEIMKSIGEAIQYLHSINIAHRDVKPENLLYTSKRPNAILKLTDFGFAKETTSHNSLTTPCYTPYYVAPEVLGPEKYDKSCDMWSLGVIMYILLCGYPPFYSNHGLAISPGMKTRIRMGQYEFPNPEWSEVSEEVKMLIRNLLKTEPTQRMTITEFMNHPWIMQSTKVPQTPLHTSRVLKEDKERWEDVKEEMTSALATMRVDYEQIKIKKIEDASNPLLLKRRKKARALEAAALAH

`Cc1[nH]c(-c2ccnc(/C=C/c3ccc(CN4CCOCC4)cc3)c2)cc1C#N` [Example 131, 2-Methyl-5-{2-[(E)-2-(4-morpholin-4-ylmethyl-phenyl)-vinyl]-pyridin-4-yl}-1H-pyrrole-3-carbonitrile]: half-maximal inhibition (IC50) required 290 nM. This lies in the sub-micromolar range.
`NC(=O)c1cc(-c2ccnc(/C=C/c3cccnc3)c2)[nH]c1N1CCNCC1` [Example 81, 2-Piperazin-1-yl-5-[2-((E)-2-pyridin-3-yl-vinyl)-pyridin-4-yl]-1H-pyrrole-3-carboxylic acid amide] registered an IC50 of 140 nM. This IC50 lies about 2.1-fold lower than the previous one.
The value for `N#Cc1cc(-c2ccnc(/C=C/c3ccc(C(=O)N4CCOCC4)cc3)c2)[nH]c1N1CCNCC1` [Example 75, 5-(2-{(E)-2-[4-(Morpholine-4-carbonyl)-phenyl]-vinyl}-pyridin-4-yl)-2-piperazin-1-yl-1H-pyrrole-3-carbonitrile] was 150 nM; that for `NC(=O)c1cc(-c2ccnc(-c3ccc(N4CCCCC4)nc3)c2)[nH]c1N1CCNCC1` [Example 109, 2-Piperazin-1-yl-5-(3,4,5,6-tetrahydro-2H-[1,2′;5′,2″]terpyridin-4″-yl)-1H-pyrrole-3-carboxylic acid amide] was 160 nM.
The value for `NC(=O)c1cc(-c2ccnc(/C=C/c3ccc(F)cc3)c2)[nH]c1N1CCNCC1` [Example 9, 5-{2-[(E)-2-(4-Fluoro-phenyl)-vinyl]-pyridin-4-yl}-2-piperazin-1-yl-1H-pyrrole-3-carboxylic acid amide] was 130 nM; that for `N#Cc1cc(-c2ccnc(-c3cnc(N4CCCOCC4)nc3)c2)[nH]c1N1CCNCC1` [Example 118, 5-[2-(2-[1,4]Oxazepan-4-yl-pyrimidin-5-yl)-pyridin-4-yl]-2-piperazin-1-yl-1H-pyrrole-3-carbonitrile trifluoroacetate] was 70 nM; that for `NC(=O)c1cc(-c2ccnc(-c3ccc(N4CCN(Cc5ccccc5)CC4)nc3)c2)[nH]c1N1CCNCC1` [Example 116, 5-[6′-(4-Benzyl-piperazin-1-yl)-[2,3′]bipyridinyl-4-yl]-2-piperazin-1-yl-1H-pyrrole-3-carboxylic acid amide] was 200 nM.
The value for `CN1CCN(c2ccc(-c3cc(-c4cc(C(N)=O)c(N5CCNCC5)[nH]4)ccn3)cn2)CC1` [Example 110, 5-[6′-(4-Methyl-piperazin-1-yl)-[2,3′]bipyridinyl-4-yl]-2-piperazin-1-yl-1H-pyrrole-3-carboxylic acid amide] was 150 nM; that for `NC(=O)c1cc(-c2ccnc(/C=C/c3ccccc3)c2)[nH]c1C1=CCNCC1` [Example 170, 5-[2-((E)-Styryl)-pyridin-4-yl]-2-(1,2,3,6-tetrahydro-pyridin-4-yl)-1H-pyrrole-3-carboxylic acid amide] was 270 nM; that for `NC(=O)c1cc(-c2ccnc(Nc3cccc(S(=O)(=O)N4CCOCC4)c3)c2)[nH]c1N1CCNCC1` [Example 93, 5-{2-[3-(Morpholine-4-sulfonyl)-phenylamino]-pyridin-4-yl}-2-piperazin-1-yl-1H-pyrrole-3-carboxylic acid amide] was 90 nM.
`N#Cc1cc(-c2ccnc(/C=C/c3ccccc3)c2)[nH]c1CCN` [Example 148, 2-(2-Amino-ethyl)-5-[2-((E)-styryl)-pyridin-4-yl]-1H-pyrrole-3-carbonitrile]: the IC50 stood at 150 nM. Against the preceding compound, the IC50 is about 1.7-fold higher.
The value for `NCCc1[nH]c(-c2ccnc(/C=C/c3ccccc3)c2)cc1C(=O)O` [Example 155, 2-(2-Amino-ethyl)-5-[2-((E)-styryl)-pyridin-4-yl]-1H-pyrrole-3-carboxylic acid] was 80 nM; that for `NC(=O)c1cc(-c2ccnc(-c3ccc(S(=O)(=O)N4CCOCC4)cc3)c2)[nH]c1N1CCNCC1` [Example 51, 5-{2-[4-(Morpholine-4-sulfonyl)-phenyl]-pyridin-4-yl}-2-piperazin-1-yl-1H-pyrrole-3-carboxylic acid amide] was 50 nM; that for `NC(=O)c1cc(-c2ccnc(/C=C/c3ccccc3)c2)[nH]c1N1CCNCC1` [Example 14, 2-Piperazin-1-yl-5-[2-((E)-styryl)-pyridin-4-yl]-1H-pyrrole-3-carboxylic acid amide] was 120 nM.
The value for `N#Cc1cc(-c2ccnc(/C=C/c3ccccc3)c2)[nH]c1C1CCNCC1` [Example 144, 2-Piperidin-4-yl-5-[2-((E)-styryl)-pyridin-4-yl]-1H-pyrrole-3-carbonitrile] was 210 nM; that for `NC(=O)c1cc(-c2ccnc(-c3ccc(C(=O)NC4CCCC4)cc3)c2)[nH]c1N1CCNCC1` [Example 55, 5-[2-(4-Cyclopentylcarbamoyl-phenyl)-pyridin-4-yl]-2-piperazin-1-yl-1H-pyrrole-3-carboxylic acid amide] was 260 nM; that for `CN1CCC(Oc2ccc(-c3cc(-c4cc(C#N)c(N5CCNCC5)[nH]4)ccn3)cn2)CC1` [Example 105, 5-[6′-(1-Methyl-piperidin-4-yloxy)-[2,3′]bipyridinyl-4-yl]-2-piperazin-1-yl-1H-pyrrole-3-carbonitrile trifluoroacetate] was 70 nM.
The value for `NC(=O)c1cc(-c2ccnc(/C=C/c3ccc(CN4CCOCC4)cc3)c2)[nH]c1N1CCNCC1` [Example 72, 5-{2-[(E)-2-(4-Morpholin-4-ylmethyl-phenyl)-vinyl]-pyridin-4-yl}-2-piperazin-1-yl-1H-pyrrole-3-carboxylic acid amide hydrobromide] was 100 nM.
